Laboratory results taken from patent publication US20100099756A1, “USES OF INCENSOLE, INCENSOLE ACETATE AND DERIVATIVES THEREOF” (YISSUM RESEARCH DEVELOPMENT COMPANY OF THE HEBREW …, priority 2006, published 2010).

Tests used:
c-Fos = c-Fos immunoreactivity in mouse brain; assay type: in vivo, female Sabra mice; details: 50 mg/kg i.p., 60 min after administration
Excerpt: The drawings were modified from plates 30; 38,45, 89 respectively from Paxinos and Franklin (2001). The atlas sections are arranged from anterior a to posterior d. The number under each section indicates its distance (mm) from the bregma. “A” is anterior to bregma and “P” is posterior to bregma.
For analysis of c-Fos immunoreactivity, positive nuclei were identified based on their round form and optical density at least twice that of background. The numbers of c-Fos immunoreactive nuclei from the right and left hemispheres were averaged to obtain a representative number for the given region from each mouse. Student t tests were performed comparing the control (vehicle) with the IA group.
The effect of IA on different brain regions were studied by looking at the effect of IA on c-Fos immunoreactivity in mice brains 60 min after administration of IA (50 mg/kg; i.p.). The c-Fos transcription factor is a product of an immediate early gene and its increase serves as a marker of enhanced neuronal activity. It is thus used in histological sections to map out brain regions that are activated or attenuated after treatment with psychoactive drugs [Werme, M., Ringholm, A., Olson, L. & Brene S. Differential patterns of induction of NGFI-B, Norl and c-fos mRNAs in striatal subregions by haloperidol and clozapine. Brain Res. 863, 112-119 (2000); and Dragunow, M., Robertson, G. S., Faull, R. L., Robertson, H. A. & Jansen, K. D2 dopamine receptor antagonists induce fos and related proteins in rat striatal neurons. (1990) Neuroscience 37, 287-294]. […] The central nucleus of the amygdala and the lateral septum play major roles in the expression of emotions [Thompson, B. L. & Rosen, J. B. Immediate-early gene expression in the central nucleus of the amygdala is not specific for anxiolytic or anxiogenic drugs. Neuropharmacology 50, 57-68 (2006); and Henry, B., Vale, W. & Markou, A. The effect of lateral septum corticotropin-releasing factor receptor 2 activation on anxiety is modulated by stress. J. Neurosci. 26, 9142-9152 (2006)]; it is assumed that c-Fos expression in the central nucleus of the amygdala is due to circuits that are engaged by both anxiolytic and anxiogenic drugs [Thompson, B. L. & Rosen, J. B. Immediate-early gene expression in the central nucleus of the amygdala is not specific for anxiolytic or anxiogenic drugs. Neuropharmacology 50, 57-68 (2006).]

TRPV3 = biological target: T1, TRPV3 (Mus musculus, UniProt Q8K424); test: Elevated plus maze in WT and TRPV3−/− mice; assay type: in vivo, C57BL/6 mice; set-up: from tissue; host or cells: whole animal, wild type C57BL/6 female mice (TRPV3 KO as control); details: 75 mg/kg
T1 sequence (Q8K424 1-791): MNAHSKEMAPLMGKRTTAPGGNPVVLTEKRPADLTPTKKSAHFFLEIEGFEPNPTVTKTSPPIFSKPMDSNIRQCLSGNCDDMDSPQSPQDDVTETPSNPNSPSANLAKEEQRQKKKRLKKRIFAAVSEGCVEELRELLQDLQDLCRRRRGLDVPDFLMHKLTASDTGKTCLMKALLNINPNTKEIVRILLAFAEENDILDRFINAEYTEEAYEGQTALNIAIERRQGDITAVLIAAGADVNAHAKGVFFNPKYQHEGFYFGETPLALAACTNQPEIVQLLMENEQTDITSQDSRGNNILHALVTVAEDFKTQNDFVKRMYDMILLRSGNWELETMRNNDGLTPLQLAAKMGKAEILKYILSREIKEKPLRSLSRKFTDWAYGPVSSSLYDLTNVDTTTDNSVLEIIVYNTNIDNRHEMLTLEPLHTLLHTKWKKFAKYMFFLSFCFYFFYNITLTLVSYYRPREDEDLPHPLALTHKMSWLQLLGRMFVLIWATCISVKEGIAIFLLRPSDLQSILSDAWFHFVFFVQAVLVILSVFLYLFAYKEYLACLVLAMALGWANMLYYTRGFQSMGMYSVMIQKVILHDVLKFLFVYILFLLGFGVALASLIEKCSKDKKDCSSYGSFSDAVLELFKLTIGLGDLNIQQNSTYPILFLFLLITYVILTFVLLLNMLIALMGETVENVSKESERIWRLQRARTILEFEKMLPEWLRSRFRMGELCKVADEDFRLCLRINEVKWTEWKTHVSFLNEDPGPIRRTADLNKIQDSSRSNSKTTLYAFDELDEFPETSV
Description: Wild type and TRPV3^−/− mice (18-20 weeks old) were injected with vehicle (isopropanol:emulphor:saline=1:1:18) or IA (75 mg/kg). 30 min later they were tested in a, the elevated plus maze (5 min), followed by b, 9 min exposure to the Porsolt forced-swimming test. […] Data are presented as means±SEM; n=4-5. * p<0.05, compared to WT-Vehicle-injected mice (Bonferroni post hoc test). ** p<0.01, compared to WT-Vehicle-injected mice (Bonferroni post hoc test).
Mice were placed in the central platform (10×10 cm) between the open (10×45 cm) and enclosed (10×45×40 cm) arms of a plus maze. The number of entries and the time spent in each of the arms was recorded. As described by others (Crawley, 2000; Treit and Menard, 1998), an ‘anti-anxiety’ effect was calculated both as the ratio of entries onto the open arms to total arm entries, and as the % time on the open arms proportional to the time in the closed arms. Mice (female Sabra strain, aged 3.5-4.5 months old) were injected intraperitoneally with 10, 30 or 50 mg/kg of incensole acetate or with vehicle. Each dose was administered to 5 mice. Fifty min after injection the mice were tested in the plus-maze for […] effects. Desipramine (5 mg/kg) was injected to a separate group of mice as a positive control. One-way Anova indicated significant effects (F=8.9, df=4.27, P<0.01). […] Data are presented as means±SEM. DMI=desipramine […]

CC(=O)OC1CC/C(C)=C/CC/C(C)=C/CC2(C(C)C)CCC1(C)O2 (centres unmarked) [IA, incensole acetate]
c-Fos in the central nucleus of the amygdala (c-Fos): significantly increased c-Fos
c-Fos in the hippocampal CA3 region (c-Fos): significantly reducing c-Fos
c-Fos in the lateral septum (c-Fos): significantly increased c-Fos
c-Fos in the medial striatum (c-Fos): significantly reducing c-Fos
c-Fos in the motor cortex (c-Fos): significantly reducing c-Fos
c-Fos in the solitary nucleus (c-Fos): significantly increased c-Fos
time on the open arms, TRPV3−/− mice (TRPV3; TRPV3−/− mice, IA vs vehicle): spent identical time on the open arms
time on the open arms, WT mice (TRPV3; WT mice, 30 min after injection): potent anxiolytic-like effect
